Data taken from patent US12673039B2, “Methods of inducing autophagy using coumarin derivatives and related compounds” (Buck Institute for Research on Aging, priority 2019, dated 2026).

System: NL5901, CL2006 and CL4176 worms
Test: Motor function (thrashing, paralysis) in worms expressing human α-synuclein or Aβ in muscles
Format: in vivo, C. elegans
Conditions: NL5901, human α-synuclein within muscles
Source text: FIG. 21, panels A-F: AIC106 prevents neuronal loss and proteotoxicity in strains expressing human neurotoxic proteins. Panel A) Dopaminergic neuronal loss in day-5 UA44 worms was quantified by scoring percentage of worms with intact 4-CEP neurons in AIC106 and DMSO-control treatment. [N=3 independent experiments (mean±SD). ***p<0.001, by one-way ANOVA with Tukey's multiple comparisons test]. Motor function in (panel B) day-7 NL5901 and (panel C) day-5 CL2006 worms were quantified by scoring number of thrashes for an individual worm over the period of 30 seconds (dots) in AIC106 and DMSO-control treatment. […] Panel D) Motor function in temperature sensitive (enhanced paralysis at 25° C.) CL4176 worms was determined by scoring percent of worms paralyzed in AIC106 and DMSO-control treatment. […] P-value calculated by Logrank test]. Panel F) Effect of AIC106 on polyQ40 aggregation was determined by scoring number of polyQ40-YFP fluorescent puncta in an individual AM141 worm treated with AIC106 and DMSO-control. […]
FIG. 22, panels A-H: AIC106-induced HLH-30 expression is mediated by the nuclear hormone receptor DAF-12. […] Panel B) Relative fold change in mRNA of hlh-30 compared to DMSO-control was quantified using qRT-PCR in young adult wild-type N2 and daf-12(rh61rh411) worms post-24 hours treatment with AIC106. […]

Structure (SMILES) | motor function (thrashing rate)
O=c1oc2c3c4c(cc2c2c1CCC2)CCCN4CCC3 [C1, 2,3,6,7,10,11-Hexahydro-1H,5H-cyclopenta(3,4)(1)benzopyrano(6,7,8-ij)quinolizin-12(9H)-one] | improved motor function
Cc1cccc(C)c1OCc1cc(C(=O)N2CCC(c3ccncc3)CC2)no1 [DFA, dafadine-A, reference compound] | improved motor function
